Measurements taken from ChEMBL document CHEMBL1687875, “Flavonoids from eight tropical plant species that inhibit the multidrug resistance transporter ABCG2” (J Nat Prod, 2011).

molecular target: T1, Broad substrate specificity ATP-binding cassette transporter ABCG2 (Homo sapiens, UniProt Q9UNQ0); assay: Inhibition of ABCG2 expressed in human NCI-H460 cells assessed as increase in PhA accumulation after 2 to 20 hrs relative to fumitremorgin C
T1 sequence (Q9UNQ0 whole entry): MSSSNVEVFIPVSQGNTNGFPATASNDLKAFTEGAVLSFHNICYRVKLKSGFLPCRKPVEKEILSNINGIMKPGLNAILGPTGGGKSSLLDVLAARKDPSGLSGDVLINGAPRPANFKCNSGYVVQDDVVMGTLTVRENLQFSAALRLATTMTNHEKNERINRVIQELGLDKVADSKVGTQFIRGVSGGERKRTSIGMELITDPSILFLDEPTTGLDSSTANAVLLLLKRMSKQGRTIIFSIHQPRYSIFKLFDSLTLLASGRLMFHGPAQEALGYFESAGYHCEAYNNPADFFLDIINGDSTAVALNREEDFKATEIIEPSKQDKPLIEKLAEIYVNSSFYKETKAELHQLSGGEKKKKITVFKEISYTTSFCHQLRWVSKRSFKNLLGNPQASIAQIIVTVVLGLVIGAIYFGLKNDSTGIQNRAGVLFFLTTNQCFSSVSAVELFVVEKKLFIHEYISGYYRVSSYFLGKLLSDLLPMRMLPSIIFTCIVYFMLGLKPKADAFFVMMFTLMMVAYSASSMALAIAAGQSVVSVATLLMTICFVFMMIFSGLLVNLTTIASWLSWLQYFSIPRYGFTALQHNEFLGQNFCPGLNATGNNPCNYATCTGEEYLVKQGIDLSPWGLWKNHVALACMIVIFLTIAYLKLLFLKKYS

Compound	IC50 [µM]
COc1ccc([C@@H]2CC(=O)c3c(O)cc(O)c(CC=C(C)C)c3O2)cc1O	6.6
CC(C)=CCc1c(O)c(CC=C(C)C)c2c(c1O)C(=O)C[C@@H](c1cc(O)cc(O)c1)O2	4.1
CC(C)=CCC/C(C)=C/Cc1c(O)cc(O)c2c1O[C@H](c1cc(O)cc(O)c1)CC2=O	15.5
COc1cc(O)c(CC=C(C)C)c(-c2oc3cc(O)cc(O)c3c(=O)c2OC)c1	8.4
C/C(=C/Cc1c(-c2cc(O)c(O)cc2O)oc2c3c(cc(O)c2c1=O)OC(C)(C)C=C3)CO	6.5
CC(C)=CCc1c(O)cc(O)c2c1O[C@H](c1ccc(O)cc1)CC2=O	3.1
COc1ccc([C@@H]2CC(=O)c3c(O)cc(O)c(CC=C(C)C)c3O2)cc1	22.6
COc1cc(O)c2c(=O)c(OC)c(-c3ccc(OC)c(O)c3)oc2c1 [AYANIN]	5.7
COc1ccc2c3c([nH]c2c1)[C@H](C=C(C)C)N1C(=O)[C@@H]2CCCN2C(=O)[C@@H]1C3 [FUMITREMORGIN]	0.8
O=c1cc(-c2ccc(O)c(O)c2)oc2cc(O)cc(O)c12 [LUTEOLIN]	8.9
CC(C)=CCC/C(C)=C/Cc1c(O)cc2oc(-c3ccc(O)cc3)c(O)c(=O)c2c1O [MACARANGIN]	5.7
COc1cc(O)c2c(=O)c(OC)c(-c3ccc(O)c(OC)c3)oc2c1 [PACHYPODOL]	17.2
CC(C)=CCC/C(C)=C/Cc1c(O)cc(O)c2c1O[C@H](c1ccc(O)cc1)CC2=O [SOPHORAFLAVANONE A]	12.3
